In patent US9034645B2, “Methods of identifying inhibitors of gene silencing in mammalian cells” (Oregon Health & Science University, priority 2008, dated 2015):

What was measured:
Type in all cases: cell-based, mouse
[1] = tested on: reactivated HPRT in H4-derived clones; assay: Re-silencing frequency of reactivated Ptet-HPRT clones (TG selection); settings: overnight 300 nM 5-aza-dC before TG selection (FIG. 15)
Procedure: FIG. 15 is a bar graph showing inactivation frequency of H4-derived clones with silenced and reactivated HPRT expression after overnight treatment with vehicle (Untreated), 300 nM 5-aza-dC (Aza-dC) or 100 nM TSA (TSA) before selecting against HPRT activity with TG. Frequencies represent the fraction of cell colonies surviving after two weeks of TG selection.
A DIF6 derived cell line expressing HPRT under the control of the Ptet system was established as described in Example 1. Gene silencing was induced following repression of HPRT expression in the presence of Dox and spontaneous reactivant cell lines that grew well in AzHx medium were isolated. Re-silencing frequency was measured in the presence of the DNA methylation inhibitor 5-aza-dC or the HDAC inhibitor TSA.

Ptet-HPRT in HPRT9 cells = assay: Inhibition of Dox-induced HPRT silencing (TG resistant clones); settings: 100 nM TSA or 300 nM 5-Aza-dC for the last 24 hours of 7 days 1 μM Dox; TG selection (FIG. 5)
Procedure: FIG. 5 is a series of digital images of dishes of TG resistant HPRT9 cells after various treatments. HPRT9 cells with Ptet-HPRT were exposed to 1 μM Dox for 7 days (Dox) to induce HPRT silencing. Some cells were also exposed 100 nM TSA (Dox+TSA) or 300 nM 5-Aza-dC (Dox+AzaC) on day 7 of Dox treatment. Control (Untreated) cells were not exposed to Dox, TSA, or 5-Aza-dC. 1×10^5 cells were plated per dish in TG medium and the dishes were stained after 12 days. The dark circles depict clones of cells that survived TG selection (TG resistant cells).
If so, silencing should be prevented by inhibiting histone deacetylation. To test this, experiments in which silencing is induced by exposure to Dox were repeated (see Example 2), but in this case the cells were exposed to TSA for the last 24 hours of Dox exposure.

[2] = tested on: silenced Aprt allele in D3, D7, D3S1 cells; assay: Aprt mRNA expression in cell lines with silenced Aprt (qRT-PCR); settings: for Aprt expression after treatment / Aprt expression / mRNA levels after treatment: overnight 3 μM 5-aza-dC or 300 nM TSA, 24 hours recovery (FIG. 12); for Aprt expression / mRNA levels after treatment: D7 cell line; for increase of Aprt mRNA levels as compared to untreated cells: 300 nM TSA
Procedure: FIG. 12 is a bar graph showing relative Aprt mRNA expression in parental cells with active Aprt expression (H22) and DAP-resistant cell lines with silenced Aprt expression (D7, D3, and D3S1) in untreated cells and cells treated with 3 μM 5-aza-dC or 300 nM TSA. Results are the average of triplicate reactions with error bars indicating the standard deviation.
Total RNA was isolated from cell cultures with the RNeasy® Mini Kit (Qiagen, Valencia, Calif.) according to the manufacturer's instructions. Total RNA samples were converted to cDNA using Quantitect® Reverse Transcription Kit (Qiagen, Valencia, Calif.) with removal of genomic DNA contamination. 100 ng cDNA was used as input in subsequent quantitative-PCR analysis for either Aprt amplification across the exon 2-3 splice site with the sense primer qAprt-F 5′-CTCTTGGCCAGTCACCTGAAG-3′ (SEQ ID NO: 4), the antisense primer qAprt-R 5′-TCTAGACCTGCGATGTAGTCGATCT-3′ (SEQ ID NO: 5) and the TaqMan probe 5′-FAM-CAC GCA CAG CGG C-MGB-3′ (SEQ ID NO: 6) or Gapdh (Mouse TaqMan Endogenous Control, Applied Biosystems) with iQ Supermix (Bio-Rad) and a Bio-Rad iCycler.
Cells were treated overnight (about 16 hours) with media containing 300 nM TSA (Wako USA, Richmond, Va.) to inhibit histone deacetylation, 3 μM 5-aza-dC (Sigma-Aldrich, St. Louis, Mo.) to inhibit DNA methylation, or the combination of 300 nM TSA and 3 μM 5-aza-dC. Cells were allowed to recover 24 hours in DMEM after drug treatment before harvesting for RNA purification.

[3] = tested on: silenced HPRT allele in H3TG3 cells; assay: HPRT reversion frequency of TG resistant cells with silenced Ptet-HPRT (HAz selection); settings: 100 nM TSA and/or 300 nM 5-aza-dC for 24 hours, 24 hour recovery, HAz medium (FIG. 3)
Procedure: Reversion frequencies were determined for a cell line with a silenced HPRT allele after no treatment (Untreated), treatment with 300 nM 5-aza-2′-deoxycytidine (AzaC) for 24 hours, treatment with 100 nM trichostatin A (TSA) for 24 hours, or a combination of 5-Aza-dC and TSA at the same concentrations for 24 hours. Revertant cells were selected with medium containing hypoxanthine and azaserine.
TSA was therefore used as a probe to determine if histone deacetylation played a significant role in the silencing phenotype. […] For this experiment, 1×10^6 cells were plated in a T-75 flask and treated with 100 nM TSA for 24 hours. After an additional 24 hour recovery time, the cells were re-plated in 100 mm dishes (1×10^5 cells per dish) in HAz medium to select for cells that regained HPRT expression. […] For this experiment, the cells were treated identically to those used for the TSA experiment, except they were exposed to 300 nM 5-aza-dC instead.

BRCA1-HPRT in BSH8 cells = assay: Inhibition of hypoxia-induced silencing of BRCA1-HPRT (TG resistance frequency); settings: hypoxia two weeks, TSA 24 hours prior to TG selection (FIG. 9)
Procedure: FIG. 9 is a bar graph showing TG resistance frequency for BSH8 cells exposed to normoxia or hypoxia for two weeks and then selected under normoxic conditions with TG. An aliquot of the hypoxia exposed cells was treated with TSA for 24 hours (hypoxia+TSA) prior to TG selection.
Two BRCA1-HPRT cell lines obtained with this approach (BSH2 and BSH8) were exposed to hypoxic conditions (growth in an atmosphere of about 95% nitrogen and 5% oxygen) for two weeks and then exposed to 2.5 μg/ml TG under hypoxic conditions for two additional weeks to select for TG resistant cells. […] Thus, the resistance phenotype became independent of hypoxia.
(§1) To confirm that silencing (as opposed to mutation) was induced by hypoxia exposure, several BRCA1-HRPT TG resistant clones induced by hypoxia were expanded and tested to determine if they could yield revertant cells after exposure to TSA (300 nM) as presented in Example 3 for cells with silenced Ptet-HPRT constructs. […] Consistent with that result, HPRT mRNA was reduced in the TG resistant clones and restored in TSA-induced revertants.

[4] = tested on: BRCA1-HPRT construct (human BRCA1 promoter); assay: Reversion of hypoxia-induced TG resistant clones containing BRCA1-HPRT; settings: for reversion / reactivation of hypoxia-induced BRCA1-HPRT TG resistant clones: TSA 300 nM (Table 3, FIG. 8), 5-Aza-dC concentration not given; for TSA-Induced Reversion Frequency: TSA 300 nM
Procedure: FIG. 8 is a bar graph showing reactivation frequency of BSH8 TG resistant clones treated with 300 nM TSA for 16 hours or in the absence of TSA (untreated).
as §1

BRCA1-HPRT [5] = assay: HPRT mRNA in BRCA1-HPRT transfectants exposed to CoCl2; settings: 50 μM or 100 μM CoCl2 for two weeks (FIG. 10A)
Procedure: FIG. 10A is a bar graph showing HPRT mRNA levels (normalized to GAPDH) in BRCA1-HPRT transfectants exposed to 50 μM or 100 μM CoCl2 for two weeks.
(§2) BRCA1-HPRT and MLH1-HPRT cell lines as described in Example 5 were exposed to CoCl2 for two weeks, followed by selection of TG resistant clones. […] Expression from the MLH1 promoter was also repressed by exposure to CoCl2.

BRCA1-HPRT [6] = assay: TG resistance frequency of BRCA1-HPRT transfectants exposed to CoCl2; settings: 50 μM or 100 μM CoCl2 for two weeks, then TG selection (FIG. 10B)
Procedure: FIG. 10B is a bar graph showing TG resistance frequency for BRCA1-HPRT transfectants exposed to 50 μM or 100 μM CoCl2 for two weeks, followed by TG selection.
as §2

[7] = tested on: MLH1 promoter (MLH1-HPRT); assay: Expression from the MLH1 promoter in MLH1-HPRT cells exposed to CoCl2; settings: CoCl2 exposure
From the text: as §2

Ptet-HPRT [8] = assay: Induction of silencing via repression of Ptet-HPRT by Dox (TG resistance frequency); settings: 1 μM Dox 7 days, then TG and puromycin selection without Dox
Procedure: FIG. 2 is a bar graph showing silencing frequency as a function of time of Dox exposure. HPRT 3 cells with Ptet-HPRT were exposed to 1 μM Dox for the times indicated before being released from Dox and selected with 6-thioguanine (TG). TG resistance frequencies are plotted. No TG resistant clones were identified after one or two weeks of growth in medium without Dox. The HPRT 3 cell line was created by inserting the Ptet-HPRT construct and the tet-responsive transcription activator construct into the genome of a mouse cell line termed DIF6.
To determine if gene repression could induce silencing, three cell lines expressing HPRT under control of the Ptet promoter (Ptet-HPRT) were exposed to Dox for 7 days and then selected with TG in the absence of Dox. These cells lines were chosen because 1) each gave few or no spontaneous TG resistant clones and 2) Ptet-HPRT was integrated near the bacterial puromycin (pur) selectable gene, which allowed puromycin selection to be used to prevent deletion of Ptet-HPRT. […] For this experiment, 1×10^6 cells were exposed to 1 μM Dox for 7 days, the Dox was removed from the medium, the cells re-plated in 100 mm dishes at a density of 1×10^5 cells per dish and exposed to TG (5 μg/ml) and puromycin (1.5 μg/ml).

Ptet-HPRT [9] = assay: HPRT mRNA by qRT-PCR in Ptet-HPRT cells exposed to Dox; settings: after removal of Dox from the medium
From the text: The cell lines described in Example 1 were used to determine if gene silencing can be induced by transient reduction of gene expression. […] In other words, Dox can reduce but not eliminate gene expression. HPRT mRNA was restored to the original levels observed in the absence of Dox within 2 days after Dox was removed from the medium.

[10] = tested on: silenced HPRT allele in H3TG3 cells; assay: Reactivation of silenced HPRT, mRNA by qRT-PCR; settings: 5 or 15 μM SFN for 24 hours, RNA 24 hours after exposure; compared with 300 nM 5-aza-dC (FIG. 4)
Procedure: Relative levels of HPRT mRNA were determined in H3TG3 cells exposed to 300 nM 5-Aza-dC, 5 μM SFN, or 15 μM SFN for 24 hours. RNA was collected after an additional 24 hours and quantitative real time PCR (qRT-PCR) was used to determine mRNA levels, which were set to 1.0 for untreated cells.
RNA levels instead of reactivation frequencies were used as the endpoint for this experiment.

Ptet-HPRT in HPRT3 cells = assay: Relative HPRT expression in Dox exposed cells treated with TSA (qRT-PCR); settings: 1 μM Dox 7 days, TSA on day 7 (FIG. 6)
Procedure: FIG. 6 is a bar graph showing relative HPRT expression after Dox exposed HPRT3 cells were treated with TSA. The HPRT3 cells expressing Ptet-HPRT were treated with 1 μM Dox for 6 days and on day 7 some cells were exposed to both Dox and TSA (at concentrations shown). RNA was collected at the end of the 7th day and assayed for HPRT levels with qRT-PCR.

**Q.** How did the re-silencing frequency [1] turn out when Nc1ncn([C@H]2C[C@H](O)[C@@H](CO)O2)c(=O)n1 [5-aza-dC, 5-aza-2′-deoxycytidine] was run?
**A.** essentially unchanged

**Q.** What about the “induction of cells with silenced HPRT alleles” value (Ptet-HPRT in HPRT9 cells) of the same compound?
**A.** did not inhibit

**Q.** And the “Aprt expression after treatment” value ([2]; D3S1 cell line)?
**A.** reactivated expression

**Q.** And the “Aprt expression after treatment” value ([2]; D3 cell line)?
**A.** reactivated expression

**Q.** What about the “Aprt expression / mRNA levels after treatment” value [2] of the same compound?
**A.** did not alter expression

**Q.** And the “frequency of revertant cells” value [3]?
**A.** induced revertant cells

**Q.** And the “hypoxia-induced silencing of the BRCA1 promoter” value (BRCA1-HPRT in BSH8 cells)?
**A.** did not inhibit the induction of silencing

**Q.** And the “reversion / reactivation of hypoxia-induced BRCA1-HPRT TG resistant clones” value [4]?
**A.** did not reactivate the silenced clones

**Q.** How did the BRCA1-HPRT expression (BRCA1-HPRT [5]) turn out when [Cl][Co][Cl] [CoCl2, cobalt chloride] was run?
**A.** repressed in a dose-dependent manner

**Q.** What about the TG-resistant clones (BRCA1-HPRT [6]) of the same compound?
**A.** only arose in BRCA1-HPRT cells exposed to 100 μM CoCl2

**Q.** And the “Expression from the MLH1 promoter” value [7]?
**A.** repressed

**Q.** Which “Silencing Frequency” value (Ptet-HPRT [8]; HPRT 1 cell line) does the source give for C[C@H]1c2cccc(O)c2C(=O)C2=C(O)[C@]3(O)C(=O)C(C(N)=O)=C(O)[C@@H](N(C)C)[C@@H]3[C@@H](O)[C@@H]21 [Dox, doxycycline] here?
**A.** 9.4 × 10^−3

**Q.** What about the “Silencing Frequency” value (Ptet-HPRT [8]; HPRT 3 cell line) of the same compound?
**A.** 2.1 × 10^−4

**Q.** And the “Silencing Frequency” value (Ptet-HPRT [8]; HPRT 4 cell line)?
**A.** 1.6 × 10^−4

**Q.** And the “time to restoration of HPRT mRNA to original levels after Dox was removed” value (Ptet-HPRT [9])?
**A.** ≤ 2 days

**Q.** How did the “reactivation of silenced HPRT allele (RNA levels)” value [10] turn out when C[S+]([O-])CCCCN=C=S (centres unmarked) [SFN, sulforaphane] was run?
**A.** reactivate the silenced HPRT allele in a dose dependent manner, and at levels greater than that for exposure with 5-aza-dC

**Q.** CC(/C=C/C(=O)NO)=C\[C@@H](C)C(=O)c1ccc(N(C)C)cc1 [TSA, trichostatin A] was tested. Which “induction of cells with silenced HPRT alleles” value (Ptet-HPRT in HPRT9 cells) did it give?
**A.** significantly inhibited

**Q.** What about the “increase of Aprt mRNA levels as compared to untreated cells” value ([2]; D3S1 cell line) of the same compound?
**A.** 8 fold

**Q.** What about the “increase of Aprt mRNA levels as compared to untreated cells” value ([2]; D3 cell line) of the same compound?
**A.** 1.5 fold

**Q.** And the “Aprt expression / mRNA levels after treatment” value [2]?
**A.** no affect

**Q.** And the “frequency of revertant cells” value [3]?
**A.** increased

**Q.** What about the “hypoxia-induced silencing of the BRCA1 promoter” value (BRCA1-HPRT in BSH8 cells) of the same compound?
**A.** inhibited hypoxia-induced silencing

**Q.** And the “TSA-Induced Reversion Frequency” value ([4]; TG cell line BSH8TG22)?
**A.** 6.9 × 10^−4

**Q.** What about the “TSA-Induced Reversion Frequency” value ([4]; TG cell line BSH8TG23) of the same compound?
**A.** 1.0 × 10^−4

**Q.** And the “reversion / reactivation of hypoxia-induced BRCA1-HPRT TG resistant clones” value [4]?
**A.** induced revertant cells

**Q.** What about the “HPRT expression in the presence of Dox” value (Ptet-HPRT in HPRT3 cells) of the same compound?
**A.** restored a level of HPRT expression
